Results published in patent publication US7244583B2, “Device for detecting bacterial contamination and method of use” (priority 2000, dated 2007).
*: point of attachment. DABSYL = CN(C)c1ccc(/N=N/c2ccc(S(=O)(=O)*)cc2)cc1; EDANS = O=S(=O)(O)c1cccc2c(NCCN*)cccc12

Columns and labels:
E. coli = test: FRET peptide substrate cleavage/detection with E. coli; type: biochemical; conditions: FRET peptide probe
mpl = test: FRET analysis of mpl activity with DABCYL/EDANS-labeled peptide substrates (Listeria); type: biochemical, Listeria monocytogenes; conditions: FRET peptide probe
Text: The presence of L. monocytogenes contamination is detected by measuring the metalloprotease (mpl), which is found only in the pathogenic species of L. monocytogenes (Domann et al., infection and Immunity. 1991. January; 59(1):65-72; Mengaud et al., 1991). A series of peptides, M1 (lot 038-13/15) and P1 (lot 038-10/12), for use as synthetic substrates for mpl (Table 1) was designed and the sequences manufactured by New England Peptide (195 Kimball St., Fitchburg, Mass.). The peptides were synthesized with fluorescent groups (DABCYL and EDANS) in such a way that the active sites were not blocked. The M1 peptide is specific for L. monocytogenes at pH 5.5.
Fluorescence resonance energy transfer (FRET) is the process of a distance dependent excited state interaction in which the emission of one fluorescent molecule is coupled to the excitation of another. […] The cleavage reaction can be followed by observing either a decrease in DABCYL fluorescence or an increase in EDANS fluorescence (loss of quenching).
Determine the peptide sequence for the active site of the protease using fluorescence resonance energy transfer (FRET). Fluorescence resonance energy transfer (FRET) is the process of a distance dependent excited state interaction in which the emission of one fluorescent molecule is coupled to the excitation of another. […]

Substance: DABSYL-ADTVEPTGAKE-EDANS ({DABSYL}-ADTVEPTGAKE-{EDANS}; SMILES CC(C)[C@H](NC(=O)[C@@H](NC(=O)[C@H](CC(=O)O)NC(=O)[C@H](C)NS(=O)(=O)c1ccc(/N=N/c2ccc(N(C)C)cc2)cc1)[C@@H](C)O)C(=O)N[C@@H](CCC(=O)O)C(=O)N1CCC[C@H]1C(=O)N[C@H](C(=O)NCC(=O)N[C@@H](C)C(=O)N[C@@H](CCCCN)C(=O)N[C@@H](CCC(=O)O)C(=O)NCCNc1cccc2c(S(=O)(=O)O)cccc12)[C@@H](C)O) [Peptide P2, FRET-labeled synthetic peptide probe]
- Description: cleavage by E. coli (E. coli): Not cleaved
- Description: cleavage by Listeria (mpl): Not cleaved

Substance: DABSYL-NML, SEVERE-EDANS ({DABSYL}-NMLSEVERE-{EDANS}; SMILES CSCC[C@H](NC(=O)[C@H](CC(N)=O)NS(=O)(=O)c1ccc(/N=N/c2ccc(N(C)C)cc2)cc1)C(=O)N[C@@H](CC(C)C)C(=O)N[C@@H](CO)C(=O)N[C@@H](CCC(=O)O)C(=O)N[C@H](C(=O)N[C@@H](CCC(=O)O)C(=O)N[C@@H](CCCNC(=N)N)C(=O)N[C@@H](CCC(=O)O)C(=O)NCCNc1cccc2c(S(=O)(=O)O)cccc12)C(C)C) [Peptide M1, FRET-labeled synthetic peptide substrate for mpl of L. monocytogenes (lot 038-13/15)]
- detection of the presence of E. coli by the peptide (E. coli; pH 5.5): does not significantly detect
- Description: specificity of peptide substrate for Listeria (L. monocytogenes) (mpl; pH 5.5): Specific to
